Test results from PMC4032265 (PLoS ONE, 2014).
Like-named read-outs stand apart in the source and are kept apart here.

How the values were obtained:
β3 adrenergic receptor = β3 adrenergic receptor (Homo sapiens, UniProt P13945); experiment: PDSP radioligand binding, β3; conditions: for Ki: full concentration-response curves, n = 3-6 unless noted; for inhibition at 10 µM: read-out: % inhibition at 10 µM
[1] = biological target: H4 histaminergic receptor (Homo sapiens, UniProt Q9H3N8); experiment: PDSP radioligand binding, H4; conditions: read-out: % inhibition at 10 µM
5HT3 ion channels = biological target: T1, 5HT3 ion channels (Homo sapiens, UniProt P46098); experiment: PDSP radioligand binding, 5HT3 ion channel; conditions: for inhibition at 10 µM: read-out: % inhibition at 10 µM
T1 sequence (P46098 24-478): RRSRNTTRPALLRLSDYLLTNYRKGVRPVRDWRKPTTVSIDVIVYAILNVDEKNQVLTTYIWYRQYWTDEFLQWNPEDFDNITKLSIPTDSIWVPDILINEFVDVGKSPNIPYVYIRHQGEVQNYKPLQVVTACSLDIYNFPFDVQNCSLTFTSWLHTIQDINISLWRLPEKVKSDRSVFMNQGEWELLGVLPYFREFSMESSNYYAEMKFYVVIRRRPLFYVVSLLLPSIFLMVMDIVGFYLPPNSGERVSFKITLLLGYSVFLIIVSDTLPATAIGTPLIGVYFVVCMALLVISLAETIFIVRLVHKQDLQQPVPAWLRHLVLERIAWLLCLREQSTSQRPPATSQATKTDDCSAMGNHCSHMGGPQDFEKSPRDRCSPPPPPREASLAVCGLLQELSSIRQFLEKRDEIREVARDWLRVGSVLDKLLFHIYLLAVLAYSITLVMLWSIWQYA

σ2 receptor = biological target: T2, σ2 receptor (Rattus norvegicus, UniProt Q5U3Y7); experiment: PDSP radioligand binding, σ2; conditions: for Ki: full curves, n = 2; for inhibition at 10 µM: read-out: % inhibition at 10 µM
T2 sequence (Q5U3Y7 1-176): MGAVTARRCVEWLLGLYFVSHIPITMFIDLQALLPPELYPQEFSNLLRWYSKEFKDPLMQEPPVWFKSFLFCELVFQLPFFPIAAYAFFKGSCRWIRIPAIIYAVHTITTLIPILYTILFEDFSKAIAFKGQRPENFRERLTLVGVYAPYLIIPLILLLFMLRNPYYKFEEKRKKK

α1B adrenergic receptor = biological target: T3, α1B adrenergic receptor (Homo sapiens, UniProt P35368); experiment: PDSP radioligand binding, α1B; conditions: read-out: % inhibition at 10 µM
T3 sequence (P35368 1-520): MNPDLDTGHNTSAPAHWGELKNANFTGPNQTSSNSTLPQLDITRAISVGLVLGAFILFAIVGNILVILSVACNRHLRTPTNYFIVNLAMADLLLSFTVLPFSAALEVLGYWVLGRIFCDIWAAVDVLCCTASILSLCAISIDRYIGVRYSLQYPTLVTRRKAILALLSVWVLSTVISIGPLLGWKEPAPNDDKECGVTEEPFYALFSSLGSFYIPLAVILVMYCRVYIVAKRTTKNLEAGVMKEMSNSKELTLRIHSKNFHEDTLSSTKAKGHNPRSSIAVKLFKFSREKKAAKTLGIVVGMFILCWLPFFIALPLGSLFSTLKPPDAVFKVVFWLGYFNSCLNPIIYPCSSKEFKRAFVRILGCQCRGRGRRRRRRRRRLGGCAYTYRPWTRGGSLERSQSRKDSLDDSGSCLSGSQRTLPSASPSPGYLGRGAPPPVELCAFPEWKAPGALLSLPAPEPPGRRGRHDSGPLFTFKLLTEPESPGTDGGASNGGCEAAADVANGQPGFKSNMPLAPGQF

[2] = biological target: M3 muscarinic acetylcholine receptor (Homo sapiens, UniProt P20309); experiment: PDSP radioligand binding, M3; conditions: read-out: % inhibition at 10 µM
[3] = biological target: T4, M5 muscarinic acetylcholine receptor (Homo sapiens, UniProt P08912); experiment: PDSP radioligand binding, M5; conditions: read-out: % inhibition at 10 µM
T4 sequence (P08912 1-532): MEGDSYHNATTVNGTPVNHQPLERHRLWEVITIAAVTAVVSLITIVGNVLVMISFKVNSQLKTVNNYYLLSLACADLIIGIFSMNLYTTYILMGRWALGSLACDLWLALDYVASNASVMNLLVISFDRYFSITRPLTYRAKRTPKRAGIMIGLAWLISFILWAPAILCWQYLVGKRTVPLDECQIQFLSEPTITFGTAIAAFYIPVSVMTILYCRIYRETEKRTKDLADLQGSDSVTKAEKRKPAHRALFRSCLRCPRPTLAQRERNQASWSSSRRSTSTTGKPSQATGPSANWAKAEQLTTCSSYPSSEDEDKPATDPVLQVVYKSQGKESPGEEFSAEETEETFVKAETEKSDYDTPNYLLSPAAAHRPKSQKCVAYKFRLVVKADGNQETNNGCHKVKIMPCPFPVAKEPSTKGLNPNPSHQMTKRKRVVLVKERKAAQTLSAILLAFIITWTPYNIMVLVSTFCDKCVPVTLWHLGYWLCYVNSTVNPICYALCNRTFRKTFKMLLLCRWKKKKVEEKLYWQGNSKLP

D1 dopaminergic receptor = D1 dopaminergic receptor (Homo sapiens, UniProt P21728); experiment: PDSP radioligand binding, D1; conditions: read-out: % inhibition at 10 µM
D3 dopaminergic receptor = D3 dopaminergic receptor (Homo sapiens, UniProt P35462); experiment: PDSP radioligand binding, D3; conditions: read-out: % inhibition at 10 µM
D4 dopaminergic receptor = biological target: T5, D4 dopaminergic receptor (Homo sapiens, UniProt P21917); experiment: PDSP radioligand binding, D4; conditions: read-out: % inhibition at 10 µM
T5 sequence (P21917 1-419): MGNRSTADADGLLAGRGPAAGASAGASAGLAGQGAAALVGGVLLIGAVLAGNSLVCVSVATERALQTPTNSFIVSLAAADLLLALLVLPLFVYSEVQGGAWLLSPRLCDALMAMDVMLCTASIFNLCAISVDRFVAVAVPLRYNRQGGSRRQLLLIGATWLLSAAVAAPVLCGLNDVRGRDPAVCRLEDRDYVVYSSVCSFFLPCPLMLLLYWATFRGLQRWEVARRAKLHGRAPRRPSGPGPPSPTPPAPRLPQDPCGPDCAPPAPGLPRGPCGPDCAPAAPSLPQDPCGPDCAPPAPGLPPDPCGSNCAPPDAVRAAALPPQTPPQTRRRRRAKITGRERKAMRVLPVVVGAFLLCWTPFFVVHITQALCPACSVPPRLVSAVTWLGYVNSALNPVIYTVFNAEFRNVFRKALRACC

D5 dopaminergic receptor = D5 dopaminergic receptor (Homo sapiens, UniProt P21918); experiment: PDSP radioligand binding, D5; conditions: read-out: % inhibition at 10 µM
κ opioid receptor = κ opioid receptor (Homo sapiens, UniProt P41145); experiment: PDSP radioligand binding, κ opioid; conditions: read-out: % inhibition at 10 µM
µ opioid receptor = µ opioid receptor (Homo sapiens, UniProt P35372); experiment: PDSP radioligand binding, µ opioid; conditions: read-out: % inhibition at 10 µM
µ opioid receptor, sequence (P35372 whole entry): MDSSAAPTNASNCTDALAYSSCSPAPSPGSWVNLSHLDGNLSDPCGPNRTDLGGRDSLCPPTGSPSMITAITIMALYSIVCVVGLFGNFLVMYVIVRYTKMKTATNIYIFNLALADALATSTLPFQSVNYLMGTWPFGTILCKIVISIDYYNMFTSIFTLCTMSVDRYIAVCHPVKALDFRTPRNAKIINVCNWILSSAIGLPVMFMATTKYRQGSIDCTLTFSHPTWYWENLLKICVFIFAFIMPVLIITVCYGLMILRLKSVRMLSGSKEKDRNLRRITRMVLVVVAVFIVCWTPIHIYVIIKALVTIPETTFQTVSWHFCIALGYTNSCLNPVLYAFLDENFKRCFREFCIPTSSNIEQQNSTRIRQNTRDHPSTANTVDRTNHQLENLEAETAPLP

κ opioid receptor, sequence (P41145 whole entry): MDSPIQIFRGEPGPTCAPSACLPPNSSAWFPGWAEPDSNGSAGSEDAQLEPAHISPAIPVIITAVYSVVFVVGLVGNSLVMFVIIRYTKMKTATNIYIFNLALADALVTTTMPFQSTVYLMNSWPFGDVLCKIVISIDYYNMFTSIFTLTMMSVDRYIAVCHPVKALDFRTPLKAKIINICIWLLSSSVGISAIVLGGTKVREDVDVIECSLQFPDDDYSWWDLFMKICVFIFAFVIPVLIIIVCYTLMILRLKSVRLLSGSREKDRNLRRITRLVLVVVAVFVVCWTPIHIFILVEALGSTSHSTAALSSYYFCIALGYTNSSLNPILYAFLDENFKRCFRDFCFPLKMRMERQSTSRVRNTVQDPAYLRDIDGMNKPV
D1 dopaminergic receptor, sequence (P21728 whole entry): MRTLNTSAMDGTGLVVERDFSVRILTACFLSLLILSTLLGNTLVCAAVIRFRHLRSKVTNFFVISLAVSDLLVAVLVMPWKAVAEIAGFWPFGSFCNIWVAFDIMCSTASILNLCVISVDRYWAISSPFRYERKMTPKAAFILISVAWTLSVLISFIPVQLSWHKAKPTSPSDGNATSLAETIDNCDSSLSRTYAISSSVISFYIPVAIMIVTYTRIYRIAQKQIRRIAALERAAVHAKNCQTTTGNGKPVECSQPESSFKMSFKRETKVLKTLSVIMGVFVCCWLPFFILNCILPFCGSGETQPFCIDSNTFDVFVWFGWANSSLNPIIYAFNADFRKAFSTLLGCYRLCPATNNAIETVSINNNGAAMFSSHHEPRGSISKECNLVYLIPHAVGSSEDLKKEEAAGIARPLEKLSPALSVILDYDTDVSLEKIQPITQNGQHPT
M3 muscarinic acetylcholine receptor, sequence (P20309 whole entry): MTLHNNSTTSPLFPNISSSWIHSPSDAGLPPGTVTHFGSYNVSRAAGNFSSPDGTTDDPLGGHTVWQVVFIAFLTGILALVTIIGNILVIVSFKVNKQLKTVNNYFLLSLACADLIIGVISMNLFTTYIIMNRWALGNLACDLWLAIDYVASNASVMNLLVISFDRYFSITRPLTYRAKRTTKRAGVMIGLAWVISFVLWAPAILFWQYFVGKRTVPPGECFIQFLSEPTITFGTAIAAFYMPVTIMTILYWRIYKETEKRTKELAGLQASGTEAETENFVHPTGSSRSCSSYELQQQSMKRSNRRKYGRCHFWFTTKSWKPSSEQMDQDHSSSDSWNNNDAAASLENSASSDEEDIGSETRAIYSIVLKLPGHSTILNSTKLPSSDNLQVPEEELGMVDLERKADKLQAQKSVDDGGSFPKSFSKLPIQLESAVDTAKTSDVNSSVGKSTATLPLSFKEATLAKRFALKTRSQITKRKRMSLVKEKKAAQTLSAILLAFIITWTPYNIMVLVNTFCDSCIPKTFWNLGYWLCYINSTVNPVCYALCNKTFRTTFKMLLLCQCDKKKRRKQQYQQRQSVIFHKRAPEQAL
β3 adrenergic receptor, sequence (P13945 whole entry): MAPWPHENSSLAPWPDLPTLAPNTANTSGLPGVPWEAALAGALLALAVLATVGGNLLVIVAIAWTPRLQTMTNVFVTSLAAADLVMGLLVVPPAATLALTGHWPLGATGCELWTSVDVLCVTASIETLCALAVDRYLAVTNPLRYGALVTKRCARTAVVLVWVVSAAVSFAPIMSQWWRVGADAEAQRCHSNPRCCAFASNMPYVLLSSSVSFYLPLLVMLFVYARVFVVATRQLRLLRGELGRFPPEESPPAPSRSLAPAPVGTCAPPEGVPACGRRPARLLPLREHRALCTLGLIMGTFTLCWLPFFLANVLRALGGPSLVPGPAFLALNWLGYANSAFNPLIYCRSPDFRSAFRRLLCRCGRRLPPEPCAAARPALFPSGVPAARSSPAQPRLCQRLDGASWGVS
H4 histaminergic receptor, sequence (Q9H3N8 whole entry): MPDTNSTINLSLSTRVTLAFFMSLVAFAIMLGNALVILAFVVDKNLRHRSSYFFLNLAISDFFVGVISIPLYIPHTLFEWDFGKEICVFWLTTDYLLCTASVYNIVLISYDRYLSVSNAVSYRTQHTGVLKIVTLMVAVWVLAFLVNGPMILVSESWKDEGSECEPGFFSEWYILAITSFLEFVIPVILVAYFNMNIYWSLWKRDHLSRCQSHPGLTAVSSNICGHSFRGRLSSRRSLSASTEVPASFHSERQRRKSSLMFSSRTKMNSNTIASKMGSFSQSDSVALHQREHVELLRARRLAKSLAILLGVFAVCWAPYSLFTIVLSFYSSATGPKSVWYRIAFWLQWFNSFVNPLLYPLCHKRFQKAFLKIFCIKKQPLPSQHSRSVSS
D5 dopaminergic receptor, sequence (P21918 whole entry): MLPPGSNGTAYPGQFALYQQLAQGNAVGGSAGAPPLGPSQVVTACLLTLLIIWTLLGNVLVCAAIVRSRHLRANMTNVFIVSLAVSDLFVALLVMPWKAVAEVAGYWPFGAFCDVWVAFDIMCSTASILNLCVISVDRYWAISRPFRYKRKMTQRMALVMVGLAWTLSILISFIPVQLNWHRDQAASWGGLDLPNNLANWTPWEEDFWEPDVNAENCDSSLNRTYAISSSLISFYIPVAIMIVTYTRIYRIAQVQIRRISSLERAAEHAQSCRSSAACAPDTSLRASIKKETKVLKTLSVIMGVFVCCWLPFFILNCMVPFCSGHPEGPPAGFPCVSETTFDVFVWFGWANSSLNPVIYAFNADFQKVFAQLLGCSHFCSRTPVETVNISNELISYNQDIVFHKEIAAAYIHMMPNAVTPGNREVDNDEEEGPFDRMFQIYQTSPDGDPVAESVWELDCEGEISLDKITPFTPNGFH
D3 dopaminergic receptor, sequence (P35462 whole entry): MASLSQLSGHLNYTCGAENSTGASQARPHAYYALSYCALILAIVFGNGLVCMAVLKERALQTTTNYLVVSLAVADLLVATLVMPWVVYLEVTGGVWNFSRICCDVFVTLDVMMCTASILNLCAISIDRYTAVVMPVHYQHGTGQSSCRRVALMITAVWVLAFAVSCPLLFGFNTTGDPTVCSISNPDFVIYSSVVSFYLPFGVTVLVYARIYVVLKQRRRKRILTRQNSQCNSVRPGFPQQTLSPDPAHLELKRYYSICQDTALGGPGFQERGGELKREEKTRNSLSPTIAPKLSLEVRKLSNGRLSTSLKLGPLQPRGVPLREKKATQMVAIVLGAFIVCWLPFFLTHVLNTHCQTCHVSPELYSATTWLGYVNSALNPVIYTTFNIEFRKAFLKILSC

Structure (SMILES)	Ki (β3 adrenergic receptor) [µM]	Ki (σ2 receptor) [µM]	inhibition at 10 µM (β3 adrenergic receptor; single concentration 10 µM) [%]	inhibition at 10 µM ([1]; single concentration 10 µM) [%]	inhibition at 10 µM (5HT3 ion channels; single concentration 10 µM) [%]	inhibition at 10 µM (σ2 receptor; single concentration 10 µM) [%]	inhibition at 10 µM (α1B adrenergic receptor; single concentration 10 µM) [%]	inhibition at 10 µM ([2]; single concentration 10 µM) [%]	inhibition at 10 µM ([3]; single concentration 10 µM) [%]	inhibition at 10 µM (D1 dopaminergic receptor; single concentration 10 µM) [%]	inhibition at 10 µM (D3 dopaminergic receptor; single concentration 10 µM) [%]	inhibition at 10 µM (D4 dopaminergic receptor; single concentration 10 µM) [%]	inhibition at 10 µM (D5 dopaminergic receptor; single concentration 10 µM) [%]	inhibition at 10 µM (κ opioid receptor; single concentration 10 µM) [%]	inhibition at 10 µM (µ opioid receptor; single concentration 10 µM) [%]	other results
CNC(=O)[C@@]12C[C@@H]1[C@@H](n1cnc3c(NCc4cccc(Cl)c4)nc(C#Cc4ccc(F)c(F)c4)nc31)[C@H](O)[C@@H]2O [Compound 1]	1.45 ± 0.51	0.908 ± 0.294	–	–	–	–	–	–	–	–	–	–	–	–	–	inhibition at 10 µM (β3 adrenergic receptor): 74%; inhibition at 10 µM [1]: 17%; inhibition at 10 µM (5HT3 ion channels): 3%; inhibition at 10 µM (σ2 receptor): 0%; inhibition at 10 µM (α1B adrenergic receptor): 44%; inhibition at 10 µM [2]: 2%; inhibition at 10 µM [3]: 2%; inhibition at 10 µM (D1 dopaminergic receptor): 13%; inhibition at 10 µM (D3 dopaminergic receptor): 2%; inhibition at 10 µM (D4 dopaminergic receptor): 0%; inhibition at 10 µM (D5 dopaminergic receptor): 13%; inhibition at 10 µM (κ opioid receptor): 71%; inhibition at 10 µM (µ opioid receptor): 11%
CNC(=O)[C@@]12C[C@@H]1[C@@H](n1cnc3c(NCc4cccc(Cl)c4)nc(C#Cc4ccc(F)cc4)nc31)[C@H](O)[C@@H]2O [Compound 2]	1.56 ± 0.56	–	67	28	26	30	1	6	9	19	4	0	19	20	7	–
CNC(=O)[C@@]12C[C@@H]1[C@@H](n1cnc3c(NCc4cccc(Cl)c4)nc(C#Cc4ccccc4Cl)nc31)[C@H](O)[C@@H]2O [Compound 3]	1.17 ± 0.19	–	57	9	50	42	7	5	9	27	7	1	10	19	23	–
CNC(=O)[C@@]12C[C@@H]1[C@@H](n1cnc3c(NCc4cccc(Cl)c4)nc(Cl)nc31)[C@H](O)[C@@H]2O [Compound 4]	–	–	0	–	5	0	30	1	1	11	22	6	4	6	1	–
CNC(=O)[C@@]12C[C@@H]1[C@@H](n1cnc3c(NC)nc(C#Cc4ccc(F)c(F)c4)nc31)[C@H](O)[C@@H]2O [Compound 5]	2.32 ± 0.39	–	22	–	2	33	11	5	4	0	4	4	6	21	5	–
O[C@@H]1[C@H](O)[C@@H]2C[C@@H]2[C@H]1n1cnc2c(NCc3cccc(Cl)c3)nc(C#Cc3ccc(F)c(F)c3)nc21 [Compound 6]	2.46 ± 0.13	2.94 ± 1.5	27	–	0	69	19	0	3	3	0	0	3	29	0	–
O[C@@H]1[C@H](O)[C@@H]2C[C@@H]2[C@H]1n1cnc2c(NCc3cccc(Cl)c3)ncnc21 [Compound 7]	–	2.68 ± 0.47	4	0	83	66	32	11	15	2	4	0	7	4	1	Ki (5HT3 ion channels; full concentration-response curves, n = 3-6 unless noted): 3.26 ± 0.8 µM
Fc1ccc(C#Cc2nc(NCc3cccc(Cl)c3)c3nc[nH]c3n2)cc1F [Compound 8]	–	–	5	5	0	14	30	10	2	0	23	0	9	15	15	–
